From patent publication US20230136215A1, “PRODUCTION OF DUNALIELLA” (University of Greenwich, priority 2017, published 2023)

Experiments:
D. salina cultures = D. salina cultures treated with herbicides; carotenoid contents determined by HPLC; format: cell-based, Dunaliella salina; conditions: for content of phytoene per cell: continuous white LED light ~200 μmol m^−2 s^−1, 25° C.; for yield of phytoene, red light versus white light: herbicide-treated cultures, Table 4; for 9-cis/all-trans β-carotene ratio: norflurazon-treated
[1] = Effect of red and blue LED light on all-trans β-carotene dissolved in chloroform; format: physicochemical; conditions: 2.4 μM in chloroform, 24 h, 25° C.
Protocol: FIGS. 10A-10C: Effect of red and blue LED light on all-trans β-carotene. (FIG. 10A) Red light under nitrogen; (FIG. 10B) Red light in air; (FIG. 10C) Blue light in air. All-trans-β-carotene (Sigma) was dissolved in chloroform to a final concentration of 2.4 μM and vials were thoroughly flushed with either nitrogen or air, sealed and incubated for 24 h at 25° C. under LED lights. (FIG. 10A) red, nitrogen; (FIG. 10B), red, air; (FIG. 10C) blue, nitrogen or air. The same results as (FIG. 10A) were obtained for dark under nitrogen or air. […] In (FIG. 10A) (red light under nitrogen) no reaction of β-carotene was detected.

[2] = Table 5, red light, 200 μmol m^−2 s^−1, 48 h
[3] = 20 μM chlorpropham, 6-days cultivation in white LED light
[4] = 20 μM chlorpropham, white light 1500 μmol m^−2 s^−1, 4 days' cultivation
[5] = Table 5 (red light), 1500 μmol m^−2 s^−1, 96 h
[6] = Table 5, red light, 200 μmol m^−2 s^−1, 144 h
[7] = red light 200 pmol m^−2 s^−1 continuous, 48 h, chlorpropham 10 μM, Norflurazon 5 µM
[8] = red light 200 μmol m^−2 s^−1 continuous, 48 h, chlorpropham 10 μM, Norflurazon 5 µM
[9] = white LED light 200 pmol m^−2 s^−1 continuous, 48 h, chlorpropham 10 μM, Norflurazon 5 µM
[10] = white LED light 200 μmol m^−2 s^−1 continuous, 48 h, chlorpropham 10 μM, Norflurazon 5 µM

With `COc1nc(C)nc(NC(=O)NS(=O)(=O)c2ccccc2Cl)n1` [chlorsulfuron, 1-(2-chlorophenyl)sulfonyl-3-(4-methoxy-6-methyl-1,3,5-triazin-2-yl)urea] the “content of phytoene per cell” value (D. salina cultures) was “increased”.
With `O=C(Nc1ccc(F)cc1F)c1cccnc1Oc1cccc(C(F)(F)F)c1` [Diflufenican, N-(2,4-difluorophenyl)-2-[3-(trifluoromethyl)phenoxy]pyridine-3-carboxamide] the “9-cis β-carotene” value (D. salina cultures; [2]) was 10.84 ± 0.19 pg cell^−1, the 9cis of total (D. salina cultures; [2]) was 38% and the “All-trans α-carotene” value (D. salina cultures; [2]) was 0.34 ± 0.00 pg cell^−1. For the same molecule, the “All-trans β-carotene” value (D. salina cultures; [2]) was 2.98 ± 0.11 pg cell^−1, the Phytoene (D. salina cultures; [2]) was 12.78 ± 0.40 pg cell^−1 and the Phytofluene (D. salina cultures; [2]) was 0.01 ± 0.00 pg cell^−1. The “Total carotenoids (sum)” value (D. salina cultures; [2]) was 28.64 pg cell^−1, the lutein (D. salina cultures; [2]) was 0.56 ± 0.01 pg cell^−1 and the “phytoene + phytofluene of total” value (D. salina cultures; [2]) was 45%. For the same molecule, the zeaxanthin (D. salina cultures; [2]) was 1.13 ± 0.06 pg cell^−1.
With `CCNC(=O)[C@@H](C)OC(=O)Nc1ccccc1` [carbetamide, (R)-1-(ethylcarbamoyl)ethyl carbanilate] the “content of phytoene per cell” value (D. salina cultures) was “increased”.
For `CC(C)OC(=O)Nc1cccc(Cl)c1` [chlorpropham, isopropyl N-(3-chlorophenyl) carbamate], the “final phytoene concentration in the cultures” value (D. salina cultures; [3]) was 3.55 ± 0.11 mg/L, the “phytoene content in cells” value (D. salina cultures; [3]) was 25.76±1.58 pg cell^−1 and the “increase of phytoene content in cells” value (D. salina cultures; 20 μM chlorpropham, 6-days cultivation in white LED light, compared to untreated cells) was “ca. 50 fold”. The “increase of final phytoene concentration in the cultures” value (D. salina cultures; 20 μM chlorpropham, 6-days cultivation in white LED light, compared to untreated cultures) was 10 fold, the phytoene content (D. salina cultures; [4]) was “above 30 pg cell^−1” and the phytoene yield (D. salina cultures; [4]) was 8.2 mg/L. For the same molecule, the “9-cis β-carotene” value (D. salina cultures; [5]) was 6.96 ± 0.74 pg cell^−1, the 9cis of total (D. salina cultures; [5]) was 12% and the “All-trans α-carotene” value (D. salina cultures; [5]) was 0.44 ± 0.07 pg cell^−1. For the same molecule, the “All-trans β-carotene” value (D. salina cultures; [5]) was 17.34 ± 0.97 pg cell^−1, the Phytoene (D. salina cultures; [5]) was 30.62 ± 1.31 pg cell^−1 and the Phytofluene (D. salina cultures; [5]) was 1.87 ± 0.12 pg cell^−1. For the same molecule, the “Total carotenoids (sum)” value (D. salina cultures; [5]) was 58.61 pg cell^−1, the lutein (D. salina cultures; [5]) was 0.61 ± 0.03 pg cell^−1 and the “phytoene + phytofluene of total” value (D. salina cultures; [5]) was 55%. The zeaxanthin (D. salina cultures; [5]) was 0.77 ± 0.02 pg cell^−1, the “9-cis β-carotene” value (D. salina cultures; [6]) was 31.3 ± 2.49 pg cell^−1 and the 9cis of total (D. salina cultures; [6]) was 29%. For the same molecule, the “All-trans α-carotene” value (D. salina cultures; [6]) was 1.4 ± 0.13 pg cell^−1, the “All-trans β-carotene” value (D. salina cultures; [6]) was 18.34 ± 1.45 pg cell^−1 and the Phytoene (D. salina cultures; [6]) was 51.88 ± 4.53 pg cell^−1. For the same molecule, the Phytofluene (D. salina cultures; [6]) was 3.02 ± 0.29 pg cell^−1, the “Total carotenoids (sum)” value (D. salina cultures; [6]) was 108.48 pg cell^−1 and the lutein (D. salina cultures; [6]) was 1.21 ± 0.09 pg cell^−1. The “phytoene + phytofluene of total” value (D. salina cultures; [6]) was 51%, the zeaxanthin (D. salina cultures; [6]) was 1.33 ± 0.10 pg cell^−1 and the “increase of cellular content of colorless carotenoids” value (D. salina cultures; compared to untreated cultures) was “more than 30 fold”. For the same molecule, the “increase of yield of the colorless carotenoids” value (D. salina cultures; compared to untreated cultures) was “more than 10 fold”, the “yield of phytoene, red light versus white light” value (D. salina cultures; 48 h) was “more than doubled” and the Cell density (D. salina cultures; once chlorpropham was added) was “stopped increasing”. For the same molecule, the “9-cis β-carotene” value (D. salina cultures; [7]) was 14.35 ± 1.24 pg cell^−1, the zeaxanthin (D. salina cultures; [7]) was 1.05 ± 0.06 pg cell^−1 and the 9cis of total (D. salina cultures; [8]) was 39%. For the same molecule, the Phytoene (D. salina cultures; [8]) was 10.56 ± 1.53 pg cell^−1, the Phytofluene (D. salina cultures; [8]) was 1.58 ± 0.17 pg cell^−1 and the “Total carotenoids (sum)” value (D. salina cultures; [8]) was 36.7 pg cell^−1. The lutein (D. salina cultures; [8]) was 0.74 ± 0.05 pg cell^−1, the “phytoene + phytofluene of total” value (D. salina cultures; [8]) was 33% and the “phytoene contents under red light versus white light” value (D. salina cultures; same concentration of chlorpropham treatment) was “higher”. The “optimal concentration range of chlorpropham added to the cultures (phytoene production)” value (D. salina cultures; tested 0, 0.1, 1, 10, 20, 50 and 100 μM, 25° C.) was 10 to 50 µM, the “9-cis β-carotene” value (D. salina cultures; [9]) was 13.35 ± 1.88 pg cell^−1 and the zeaxanthin (D. salina cultures; [9]) was 0.84 ± 0.09 pg cell^−1. The 9cis of total (D. salina cultures; [10]) was 43%, the Phytoene (D. salina cultures; [10]) was 4.41 ± 0.65 pg cell^−1 and the Phytofluene (D. salina cultures; [10]) was 0.67 ± 0.09 pg cell^−1. The “Total carotenoids (sum)” value (D. salina cultures; [10]) was 30.99 pg cell^−1, the lutein (D. salina cultures; [10]) was 0.83 ± 0.13 pg cell^−1 and the “phytoene + phytofluene of total” value (D. salina cultures; [10]) was 16%.
With `O=C(O)CNCP(=O)(O)O` [glyphosate, 2-(phosphonomethylamino)acetic acid] the “content of phytoene per cell” value (D. salina cultures) was “increased”.
For `Nc1cc(Cl)nc(C(=O)O)c1Cl` [aminopyralid, 4-amino-3,6-dichloropyridine-2-carboxylic acid], the “content of phytoene per cell” value (D. salina cultures) was “increased”.
For `CC1=C(/C=C/C(C)=C/C=C/C(C)=C/C=C/C=C(C)/C=C/C=C(C)/C=C/C2=C(C)CCCC2(C)C)C(C)(C)CCC1` [all-trans β-carotene, all-trans-β-carotene], the “destruction of all-trans β-carotene” value ([1]; blue light, nitrogen or air) was “fully destroyed”, the “destruction of all-trans β-carotene” value ([1]; red light under air) was 40% and the “reaction of β-carotene” value ([1]; red light under nitrogen) was “no reaction”.
For `CNc1cnn(-c2cccc(C(F)(F)F)c2)c(=O)c1Cl` [Norflurazon, 4-chloro-5-methylamino-2-(3-trifluoromethylphenyl)-pyridazin-3(2H)one], the “yield of phytoene, red light versus white light” value (D. salina cultures; 48 h) was “more than doubled”, the “amount of phytoene produced under red light compared to white light” value (D. salina cultures; norflurazon 5 and 50 μM, 200 μmol m^−2 s^−1, 25° C., 48 h) was “significantly higher” and the “9-cis/all-trans β-carotene ratio” value (D. salina cultures; red LED light 200 μmol m^−2 s^−1, 25° C., 48 h) was 3.9. The “9-cis/all-trans β-carotene ratio” value (D. salina cultures; white LED light 200 μmol m^−2 s^−1, 25° C., 48 h) was 1.8, the “9-cis β-carotene” value (D. salina cultures; [7]) was 11.89 ± 0.83 pg cell^−1 and the zeaxanthin (D. salina cultures; [7]) was 1.12 ± 0.06 pg cell^−1. For the same molecule, the 9cis of total (D. salina cultures; [8]) was 38%, the Phytoene (D. salina cultures; [8]) was 14.42 ± 0.95 pg cell^−1 and the Phytofluene (D. salina cultures; [8]) was 0.02 ± 0.00 pg cell^−1. For the same molecule, the “Total carotenoids (sum)” value (D. salina cultures; [8]) was 31.55 pg cell^−1, the lutein (D. salina cultures; [8]) was 0.62 ± 0.02 pg cell^−1 and the “phytoene + phytofluene of total” value (D. salina cultures; [8]) was 46%. For the same molecule, the “9-cis β-carotene” value (D. salina cultures; [9]) was 7.65 ± 0.67 pg cell^−1, the zeaxanthin (D. salina cultures; [9]) was 0.80 ± 0.07 pg cell^−1 and the 9cis of total (D. salina cultures; [10]) was 37%. The Phytoene (D. salina cultures; [10]) was 7.07 ± 0.36 pg cell^−1, the Phytofluene (D. salina cultures; [10]) was 0.01 ± 0.00 pg cell^−1 and the “Total carotenoids (sum)” value (D. salina cultures; [10]) was 20.6 pg cell^−1. The lutein (D. salina cultures; [10]) was 0.52 ± 0.02 pg cell^−1 and the “phytoene + phytofluene of total” value (D. salina cultures; [10]) was 34%.
